Test results as given in patent publication US10023614B2, “Oral peptide inhibitors of interleukin-23 receptor and their use to treat inflammatory bowel diseases” (Protagonist Therapeutics, Inc., priority 2014, dated 2018).

Tested on: Sprague Dawley rats, DSS-induced colitis
Test: Rat colitis model: 9 days of 3% DSS-containing drinking water
Assay type: in vivo
Conditions: 100 mg/kg PO, QD; compared to DSS alone, from Day 5
Experimental: In this model, colitis was induced in SD rats by 9 days of ad lib exposure to drinking water containing 3% DSS. The disease activity index (DAI) score and ratio of colon weight:colon length were compared between three study groups (n=6 rats/group): vehicle, 3% DSS, and 3% DSS with positive control (sulfasalazine administered at 100 mg/kg PO, QD).
Acute colitis was induced by feeding female Sprague Dawley rats with 3% (wt/vol) DSS dissolved in drinking water. […] A neutralizing anti-IL-23p19 antibody was used as a comparator, and was administered intraperitoneally at 4 mg/kg on the same day and fifth day after starting DSS. To quantify colitis with clinical activity, disease activity index (DAI) was determined daily for each animal as an average of three parameters: body weight change (scale 0-3), stool consistency (scale 0-3) and hemoccult blood (scale 0-3), as shown in Table 15. At necropsy, the entire colon was removed from the cecum to the rectum. The colon was measured for length, flushed with PBS to remove feces, weighed, and opened longitudinally to determine macroscopic score.
Statistical analysis for significance was compared to the vehicle treated group and was determined using Student's T-test (GraphPad Prism). Differences were noted as significant *p<0.05, **p<0.01, ***p<0.001, ****p<0.0001.

In the case of `O=C(O)c1cc(/N=N/c2ccc(S(=O)(=O)Nc3ccccn3)cc2)ccc1O` [sulfasalazine], the “disease activity index (DAI) score” value is reported as “attenuated the disease score”.
